According to patent US20180338964A1, “3-(PIPERIDIN-4-YL)-ISOXAZOL-3(OH)-ONES FOR TREATMENT OF DERMATOLOGIC DISORDERS” (Emeriti Pharma AB, priority 2014, published 2018):

Tests used:
plasminogen kringle 1 = target: T1, plasminogen kringle 1 (Homo sapiens, UniProt P00747); assay: NMR competition assay (1D T1rho) for binding to plasminogen kringle 1, tranexamic acid as reference
T1 construct: Signal intensities from free tranexamic acid are reduced when recombinant kringle 1 protein is added
Protocol: The NMR experiment identifies compounds binding to the lysine binding pocket in a competition assay where tranexamic acid was used as reference compound and 1D T1rho experiments were used for detection. Signal intensities from free tranexamic acid are reduced when recombinant kringle 1 protein is added due to binding to this protein. The NMR signals from tranexamic acid regain intensity when an added compound displaces it from the lysine binding pocket of kringle 1.
The compounds were run one-by-one at a concentration between 15 and 300 μM. The concentration of protein and tranexamic acid were 10 and 100 μM respectively. A test compound resulting in at least 10% increase in tranexamic acid intensity (displacement) was considered binding to kringle 1.

[1] = test system: stratum corneum protease activity; settings: ˜13% EACA (1 M) cream, rosacea patients; cited from earlier work
[2] = test system: fibrinolysis in human plasma clot (tPA activation of plasminogen); settings: citrated platelet poor human plasma, tPA 80 ng/ml, 37° C.; for IC50: read-out: IC50 (clot-lysis time prolonged to twice the vehicle value); for IC90: read-out: IC90 (clot-lysis time prolonged to nine times the vehicle value)
stratum corneum barrier = settings: topically applied, healthy volunteer, after experimental damage to stratum corneum; cited from earlier work
melasma = settings: cited from earlier work
[3] = test system: stratum corneum barrier function; settings: topical 3% (˜0.2M) TXA, rosacea patients; cited from earlier work
[4] = treatment of bleeding disorders; cited from earlier work
[5] = oral TXA; cited from earlier work

T1 sequence (P00747 103-181 limits assumed): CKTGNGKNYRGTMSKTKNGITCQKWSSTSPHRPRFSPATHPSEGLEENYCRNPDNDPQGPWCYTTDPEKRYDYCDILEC

| Structure (SMILES) | Kd (plasminogen kringle 1) | further results |
| --- | --- | --- |
| O=c1cc([C@H]2CCN[C@@H](Cc3ccc(C(F)(F)F)c(F)c3)C2)o[nH]1 [5-[(2R,4S)-2-{[3-fluoro-4-(trifluoromethyl)phenyl]methyl}piperidin-4-yl]-2,3-dihydro-1,2-oxazol-3-one] | 240 nM |  |
| O=c1cc([C@H]2CCN[C@@H](c3ccc(C(F)(F)F)cc3F)C2)o[nH]1 [5-[(2R,4S)-2-[2-fluoro-4-(trifluoromethyl)phenyl]piperidin-4-yl]-2,3-dihydro-1,2-oxazol-3-one] | 300 nM |  |
| O=c1cc([C@H]2CCN[C@@H](COC3CCCCC3)C2)o[nH]1 [5-[(2R,4S)-2-[(cyclohexyloxy)methyl]piperidin-4-yl]-2,3-dihydro-1,2-oxazol-3-one] | 300 nM |  |
| O=c1cc([C@H]2CCN[C@@H](c3ccc(C(F)(F)F)cc3)C2)o[nH]1 [5-[(2R,4S)-2-[4-(trifluoromethyl)phenyl]piperidin-4-yl]-2,3-dihydro-1,2-oxazol-3-one] | 100 nM |  |
| O=c1cc([C@H]2CCN[C@@H](c3ccc(C(F)(F)F)nc3)C2)o[nH]1 [5-[(2R,4S)-2-[6-(trifluoromethyl)pyridin-3-yl]piperidin-4-yl]-2,3-dihydro-1,2-oxazol-3-one] | 280 nM |  |
| O=c1cc([C@H]2CCN[C@@H](CN3CCn4c(nnc4C(F)(F)F)C3)C2)o[nH]1 [5-[(2R,4S)-2-{[3-(trifluoromethyl)-5H,6H,7H,8H-[1,2,4]triazolo[4,3-a]pyrazin-7-yl]methyl}piperidin-4-yl]-2,3-dihydro-1,2-oxazol-3-one] | 240 nM |  |
| CS(=O)(=O)c1ccc([C@H]2C[C@@H](c3cc(=O)[nH]o3)CCN2)cc1 [5-[(2R,4S)-2-(4-methanesulfonylphenyl)piperidin-4-yl]-2,3-dihydro-1,2-oxazol-3-one] | 200 nM |  |
| Cc1cc(C(F)(F)F)ccc1[C@H]1C[C@@H](c2cc(=O)[nH]o2)CCN1 [5-[(2R,4S)-2-[2-methyl-4-(trifluoromethyl)phenyl]piperidin-4-yl]-2,3-dihydro-1,2-oxazol-3-one] | 300 nM |  |
| CC(C)(C)c1cccc([C@H]2C[C@@H](c3cc(=O)[nH]o3)CCN2)c1 [5-[(2R,4S)-2-(3-tert-butylphenyl)piperidin-4-yl]-2,3-dihydro-1,2-oxazol-3-one] | 280 nM |  |
| CC(C)(C)c1ccc(C[C@H]2C[C@@H](c3cc(=O)[nH]o3)CCN2)cc1 [5-[(2R,4S)-2-[(4-tert-butylphenyl)methyl]piperidin-4-yl]-2,3-dihydro-1,2-oxazol-3-one] | 300 nM |  |
| NCCCCCC(=O)O [EACA, 6-aminohexanoic acid] |  | stratum corneum protease activity [1]: reduction in stratum corneum protease activity; IC50 [2]: 72700 nM; IC90 [2]: 637000 nM |
| O=c1cc([C@H]2CCN[C@@H](c3ccc(F)cc3F)C2)o[nH]1 [5-[(2R,4S)-2-(2,4-difluorophenyl)piperidin-4-yl]-2,3-dihydro-1,2-oxazol-3-one] | 200 nM |  |
| O=c1cc([C@H]2CCN[C@@H](c3cc(F)c(F)cc3F)C2)o[nH]1 [5-[(2R,4S)-2-(2,4,5-trifluorophenyl)piperidin-4-yl]-2,3-dihydro-1,2-oxazol-3-one] | 300 nM |  |
| O=c1cc([C@H]2CCN[C@@H](c3ccc(F)cc3)C2)o[nH]1 [5-[(2R,4S)-2-(4-fluorophenyl)piperidin-4-yl]-2,3-dihydro-1,2-oxazol-3-one] | 600 nM |  |
| CS(=O)(=O)c1ccc(C[C@H]2C[C@@H](c3cc(=O)[nH]o3)CCN2)cc1 [5-[(2R,4S)-2-[(4-methanesulfonylphenyl)methyl]piperidin-4-yl]-2,3-dihydro-1,2-oxazol-3-one] | 400 nM |  |
| NCC1CCC(C(=O)O)CC1 (stereo not shown) [TXA, 4-(aminomethyl)cyclohexane-1-carboxylic acid] |  | stratum corneum barrier recovery (stratum corneum barrier): enhance stratum corneum barrier recovery; effect on melasma (melasma; topical 5% (˜0.3M) TXA versus vehicle): no effect; erythema (melasma; topical 5% (˜0.3M) TXA): produced erythema; stratum corneum barrier function [3]: improved stratum corneum barrier function; therapeutic plasma concentration [4]: 30 to 90 µM; IC50 [2]: 6660 nM; IC90 [2]: 55400 nM; allergic skin reaction, fraction of treated [5]: < 1/100 |
| CC(C)(C)c1cc(C[C@H]2C[C@@H](c3cc(=O)[nH]o3)CCN2)cc(C(C)(C)C)c1 [5-[(2R,4S)-2-[(3,5-di-tert-butylphenyl)methyl]piperidin-4-yl]-2,3-dihydro-1,2-oxazol-3-one] | 1000 nM |  |
| O=c1cc([C@H]2CCN[C@@H](CN3CCC[C@H]3C(F)(F)F)C2)o[nH]1 [5-[(2R,4S)-2-{[(2S)-2-(trifluoromethyl)pyrrolidin-1-yl]methyl}piperidin-4-yl]-2,3-dihydro-1,2-oxazol-3-one] | 400 nM |  |
| O=c1cc([C@H]2CCN[C@@H](Cc3cc(F)c(F)c(F)c3)C2)o[nH]1 [5-[(2R,4S)-2-[(3,4,5-trifluorophenyl)methyl]piperidin-4-yl]-2,3-dihydro-1,2-oxazol-3-one] | 140 nM |  |
| O=c1cc([C@H]2CCN[C@@H](c3ccc(OC(F)(F)F)cc3F)C2)o[nH]1 [5-[(2R,4S)-2-[2-fluoro-4-(trifluoromethoxy)phenyl]piperidin-4-yl]-2,3-dihydro-1,2-oxazol-3-one] | 300 nM |  |
| Cc1cc([C@H]2C[C@@H](c3cc(=O)[nH]o3)CCN2)ccc1C(F)(F)F [5-[(2R,4S)-2-[3-methyl-4-(trifluoromethyl)phenyl]piperidin-4-yl]-2,3-dihydro-1,2-oxazol-3-one] | 100 nM |  |
| O=c1cc([C@H]2CCN[C@@H](c3ccc(Cl)cc3Cl)C2)o[nH]1 [5-[(2R,4S)-2-(2,4-dichlorophenyl)piperidin-4-yl]-2,3-dihydro-1,2-oxazol-3-one] | 200 nM |  |
| Cn1nnc([C@H]2C[C@@H](c3cc(=O)[nH]o3)CCN2)n1 [5-[(2R,4S)-2-(2-methyl-2H-1,2,3,4-tetrazol-5-yl)piperidin-4-yl]-2,3-dihydro-1,2-oxazol-3-one] | 200 nM |  |
| O=c1cc([C@H]2CCN[C@@H](c3ccc(Cl)cc3)C2)o[nH]1 [5-[(2R,4S)-2-(4-chlorophenyl)piperidin-4-yl]-2,3-dihydro-1,2-oxazol-3-one] | 100 nM |  |
| O=c1cc([C@H]2CCN[C@@H](Cc3ccc(F)c(F)c3)C2)o[nH]1 [5-[(2R,4S)-2-[(3,4-difluorophenyl)methyl]piperidin-4-yl]-2,3-dihydro-1,2-oxazol-3-one] | 100 nM |  |
| O=c1cc([C@H]2CCN[C@@H](c3ccc(C(F)(F)F)c(F)c3)C2)o[nH]1 [5-[(2R,4S)-2-[3-fluoro-4-(trifluoromethyl)phenyl]piperidin-4-yl]-2,3-dihydro-1,2-oxazol-3-one] | 200 nM |  |
| O=c1cc([C@H]2CCN[C@@H](Cc3ccc(F)cc3F)C2)o[nH]1 [5-[(2R,4S)-2-[(2,4-difluorophenyl)methyl]piperidin-4-yl]-2,3-dihydro-1,2-oxazol-3-one] | 100 nM |  |
| CC(C)(C)c1ccc(C[C@@H]2C[C@@H](c3cc(=O)[nH]o3)CCN2)cc1 [5-[(2S,4S)-2-[(4-tert-butylphenyl)methyl]piperidin-4-yl]-2,3-dihydro-1,2-oxazol-3-one] | 100 nM |  |
